In patent US20260116910A1, “POLYCYCLIC COMPOUNDS AND METHODS THEREOF” (HEPAITECH (BEIJING) BIOPHARMA TECHNOLOGY CO., LTD., priority 2021, published 2026):

Tests used:
[1] = target: MRGPRX4 (Homo sapiens, UniProt Q96LA9); test: MRGPRX4 activation, Fluo-8 Ca2+ FLIPR assay in HEK293T cells stably expressing MRGPRX4; type: cell-based; settings: for EC50: MRGPRX4 activation, Ca2+ fluorescence, no activation in tested range reported as III, read-out: Activity (EC50 μM)
Method: In some embodiments, cells were cultured in poly-D-Lys coated blacked walled, clear-bottom 96-well microplates. HEK293T cells stably expressing MRGPRX4 were cultured in DMEM medium supplemented with 10% FBS and 1% PS, at 37° C. in a humidified atmosphere with 5% CO2. Cells were detached by centrifuging (1000 rpm, 3 min). The pellet was re-suspended in medium, and cell density was adjusted to about 1×10^6 cells/mL. 100 μL suspension was seeded to each well of a microplates (cell plate). Cells in the microplates were cultured overnight. In the following day, cells were grown to higher than 95% density in each well.
Ca^2+ fluorescent dye loading: Fluo-8 AM (Screen Quest Fluo-8 AM Calcium Assay Kit, AAT Bioquest, cat. #: 21083) was diluted in HHBS buffer and adjusted to 2 μM (dye buffer). Medium in each well was changed into 50 μL dye buffer carefully. After incubation for 40-60 min under room temperature, the dye buffer was changed into 50 μL HHBS buffer.
The concentration of solution should be determined according to the protocol settings and experimental needs (e.g., Log[M]=−4, −5, −6, −7, −8, and −9). Prepare 2× serial dilution series of compounds (at least 75 μL per well).
A fluorescent signal baseline was measured using FLIPR®Tetra for 30 s. Then 50 μL of the chemical solution would be added to the cell plate. The fluorescent signal would be measured for another 150 s.
Activity of each compound was calculated by the fluorescence change (dF/F0). Curves were fitted to obtain EC50 values. In some embodiments, at least 3 repeats were performed to obtain the average values. For assessment of a compound, gradient diluted solutions of different concentrations were used to treat cells and corresponding responses were used to fit sigmoid function and to derive EC50 in Origin. In some embodiments, assessed concentrations were or included about 10^−4, 10^−4.5, 10^−5, 10^−5.5, 10^−6, 10^−6.5, 10^−7, 10^−8, and/or 10^−9 M; for example, in many instances, assessed concentrations included about 10^−5, 10^−6, 10^−7 and 10^−8 M. In some embodiments, assessed concentrations were about 10^−4, 10^−4.5, 10^−5, 10^−5.5, 10^−6, 10^−7, 10^−8, and 10^−9 M. In some embodiments, assessed concentrations were about 10^−4, 10^−5, 10^−6, 10^−7, 10^−8, and 10^−9 M. In some embodiments, assessed concentrations were about 10^−4, 10^−4.5, 10^−5, 10^−5.5, 10^−6, and 10^−7 M. In some embodiments, assessed concentrations were about 2000000, 1000000, 500000, 250000, 125000, 62500, 31250, 15625, 7813, 3906 nM. […] In some embodiments, assessed concentrations were about 30000, 10000, 3333, 1111, 370, 123, 41, 14, 4.6, 1.5 nM.

[2] = target: T1, human FXR (NR1H4) (Homo sapiens, UniProt Q96RI1); test: Human FXR (NR1H4) agonist assessment, FXRE-NanoLuc reporter in HEK293T cells; type: cell-based; settings: FXR activation, HEK293T FXRE-NanoLuc reporter, 24 hr; for EC50: read-out: EC50
T1 sequence (Q96RI1 1-476 isoform Q96RI1-1): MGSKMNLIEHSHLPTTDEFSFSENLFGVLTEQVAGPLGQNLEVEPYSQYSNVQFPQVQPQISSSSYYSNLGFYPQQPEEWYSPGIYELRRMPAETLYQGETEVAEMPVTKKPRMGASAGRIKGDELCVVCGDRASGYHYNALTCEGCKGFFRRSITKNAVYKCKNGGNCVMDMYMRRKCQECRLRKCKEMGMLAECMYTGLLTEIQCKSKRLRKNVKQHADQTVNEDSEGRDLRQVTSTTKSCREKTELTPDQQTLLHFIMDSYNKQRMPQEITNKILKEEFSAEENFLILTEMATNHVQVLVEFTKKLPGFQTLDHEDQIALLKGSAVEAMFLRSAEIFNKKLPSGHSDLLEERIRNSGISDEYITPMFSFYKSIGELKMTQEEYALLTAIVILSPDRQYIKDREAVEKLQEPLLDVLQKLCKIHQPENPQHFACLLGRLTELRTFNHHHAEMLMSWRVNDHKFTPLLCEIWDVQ
Method: As those skilled in the art appreciate, various technologies are available for assessment of FXR activation in accordance with the present disclosure. […] Human FXR (NR1H4) agonist assessment (see, e.g., Yu et al. eLife 2019; 8: e48431): HEK293T cells stably expressing human FXR and containing FXR response element (FXRE)-NanoLuc reporter were cultured in DMEM medium supplemented with 10% FBS and 1% PS, at 37° C. in a humidified atmosphere with 5% CO2. Cells were detached by centrifuging (1000 rpm, 3 min). The pellet was re-suspended in medium, and cell density was adjusted to about 1×10^6 cells/mL. 100 μL suspension was seeded to each well of a white-walled, clear-bottom 96-well microplates (cell plate). Cells in microplates were cultured overnight.
In the following day, cells were grown to higher than 95% density in each well. Culture medium was replaced, and compounds were added to the wells. 0.01% DMSO (v/v) served as negative control. Plates were incubated at 37° C. in 5% CO2 for 24 hr.
In the following day, a 10 μL aliquot of cell culture medium was removed from each well and combined with 40 μL culture medium plus […] assay buffer (containing 20 mM of the luciferase substrate coelenterazine). After 5 min incubation, luminescence was measured using an EnVision plate reader (PerkinElmer).
In some embodiments, gradient diluted solutions of several concentrations were used to treat cells and corresponding responses were used to fit sigmoid function and to derive EC50 in Origin.

MRGPRX4, sequence (Q96LA9 whole entry): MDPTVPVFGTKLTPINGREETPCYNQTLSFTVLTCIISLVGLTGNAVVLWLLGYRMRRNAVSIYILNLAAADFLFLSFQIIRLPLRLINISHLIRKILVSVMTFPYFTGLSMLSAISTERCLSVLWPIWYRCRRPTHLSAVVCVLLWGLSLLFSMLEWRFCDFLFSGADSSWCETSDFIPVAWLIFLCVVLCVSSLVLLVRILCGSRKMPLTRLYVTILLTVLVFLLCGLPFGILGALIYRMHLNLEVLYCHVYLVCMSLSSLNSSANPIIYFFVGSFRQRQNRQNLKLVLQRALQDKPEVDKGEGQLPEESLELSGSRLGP

| Compound | MRGPRX4 activation, fluorescence change (dF/F0), Average ([1]; Conc. (Log[M]) −4) | MRGPRX4 activation, fluorescence change (dF/F0), Average ([1]; Conc. (Log[M]) −4.5) | MRGPRX4 activation, fluorescence change (dF/F0), Average ([1]; Conc. (Log[M]) −5) | MRGPRX4 activation, fluorescence change (dF/F0), Average ([1]; Conc. (Log[M]) −5.5) | MRGPRX4 activation, fluorescence change (dF/F0), Average ([1]; Conc. (Log[M]) −6) | MRGPRX4 activation, fluorescence change (dF/F0), Average ([1]; Conc. (Log[M]) −7) | MRGPRX4 activation, fluorescence change (dF/F0), Average ([1]; Conc. (Log[M]) −8) | MRGPRX4 activation, fluorescence change (dF/F0), Average ([1]; Conc. (Log[M]) −9) | EC50 [1] [µM] | Efficacy (maximum measured induction of NanoLuc, normalized to CDCA set as 100%) [2] | EC50 [2] [µM] |
| --- | --- | --- | --- | --- | --- | --- | --- | --- | --- | --- | --- |
| CC[C@H]1[C@@H](O)[C@@H]2[C@H](CC[C@]3(C)[C@@H]([C@H](C)CCC(=O)OC)CC[C@@H]23)[C@@]2(C)CCCC[C@@H]12 [1-4] | 0.098 | 0.004 | −0.014 | −0.004 | −0.011 | −0.006 | −0.009 | −0.020 | > 100 | C (100%<efficacy <=300%) | 1 to 10 |
| CC[C@H]1[C@@H](OC(=O)c2cccc(I)c2)[C@@H]2[C@H](CC[C@]3(C)[C@@H]([C@H](C)CCC(=O)OC)CC[C@@H]23)[C@@]2(C)CCCC[C@@H]12 [1-5] | 0.035 | −0.027 | −0.045 | −0.034 | −0.041 | −0.027 | −0.049 | −0.084 | 50 to 100 | D (efficacy <=100%) | > 10 |
| CC[C@H]1[C@@H](OC(=O)c2cccc(I)c2)[C@@H]2[C@H](CC[C@@]3(C)[C@H]2CC[C@]3(Cl)[C@H](C)CCC(=O)OC)[C@@]2(C)CCCC[C@@H]12 [1-6] | 0.018 | −0.031 | −0.001 | −0.012 | −0.006 | −0.001 | 0.001 | −0.014 | > 100 | D (efficacy <=100%) | > 10 |
| C[C@H](CC/C=C/C(=O)O)[C@H]1CC[C@H]2[C@@H]3CC[C@@H]4C[C@H](O)CC[C@]4(C)[C@H]3CC[C@]12C [1-7] | 0.083 | 0.011 | −0.048 | −0.037 | −0.044 | −0.045 | −0.040 | −0.034 | < 50 | C (100%<efficacy <=300%) | 1 to 10 |
| CC(C[C@@H](C)[C@H]1CC[C@H]2[C@@H]3CC[C@@H]4CCCC[C@]4(C)[C@H]3CC[C@]12C)C(=O)O (stereo partly shown) [2-1] | 0.071 | −0.014 | −0.045 | −0.072 | −0.095 | −0.110 | −0.072 | −0.091 | > 100 | C (100%<efficacy <=300%) | > 10 |
